What was measured:
[1] = tested on: cancer patients having progressive disease; conditions: human, in vivo; cited from earlier work
TNFα = conditions: cited from earlier work
Mouse endothelial cells = assay: Cell based two stage coagulation assay
Description: (§1) Mouse endothelial cells were seeded in 48 well tissue culture plates and allowed to adhere overnight. Cells were stimulated with TNFα at the following concentrations: 500 U/ml; 100 U/ml; 20 U/ml; 4 U/ml; 0.8 U/ml; 0.16 U/ml; and with medium only.
Endothelial cells were also tested for coagulant activity in a cell based two stage coagulation assay. After incubation with TNFα, cells were washed and incubated with coagulation factor mix (0.5 μg/ml factor VIIa in a mix containing 2.8 μg/ml factor IX, 3.4 μg/ml factor X, 50 μM phospholipids, in calcium buffer). The supernatant of wells was transferred into a 96 well ELISA plate. Substrate S2765 was added and Factor Xa generation measured.

VCAM-1 = assay: FACS for upregulation of VCAM-1; assay type: cell-based, mouse
Description: as §1
Endothelial cells were then investigated for upregulation of the adhesion molecule VCAM-1 by fluorescence activated cell stain (FACS). To this end, cells were stained with an antibody against murine VCAM-1, followed by an appropriate FITC-conjugated secondary antibody. Fluorescent cells were detected on a flow cytometer (Becton Dickinson. San Jose, Calif.).

[2] = tested on: tissue factor on HUVEC cells; assay: FACS analysis of tissue factor expression; assay type: cell-based, human; conditions: 6 h at 37°; TNFα 500 U/ml, LPS 10 μg/ml, VEGF 1 nM
Description: To analyze tissue factor expression on the surface of endothelial cells, HUVEC cells were incubated with TNFα (500 U/ml), LPS (10 μg/ml) or vascular endothelial growth factor (VEGF, 1 nM) alone or in combination for 6 h at 37°. Cells were then detached and stained for surface expression of human tissue factor with a sheep-anti-human tissue factor antibody (Haemochrom, Essen, Germany) and an appropriate FITC-conjugated secondary antibody. Fluorescent cells were detected on a flow cytometer (Becton Dickinson. San Jose, Calif.).

L540 Hodgkin tumors = assay: Annexin V inhibition of coaguligand-induced thrombosis in vivo; set-up: species or system SCID mice
Description: The ability of Annexin V to inhibit coaguligand-induced thrombosis in vivo was examined in L540 Hodgkin-bearing SCID mice.
Four hours after the last injection mice were anesthetized and perfused with heparinized saline. Tumors were removed, fixed with 4% formalin, paraffin-embedded and stained with hematoxylene-eosin. The number of thrombosed and non-thrombosed blood vessels were counted and the percentage of thrombosis was calculated.

[3] = tested on: Factor X on IL-1α-stimulated bEnd.3 cells; assay: Chromogenic assay of coaguligand-induced Factor Xa formation; assay type: cell-based; conditions: 10 μg per ml
Description: The ability of Annexin V to affect Factor Xa formation induced by coaguligand was determined by a chromogenic assay. […] Annexin V was added at concentrations ranging from 0.1 to 10 μg/ml and cells were incubated for 30 min. before addition of diluted Proplex T. The amount of Factor Xa generated in the presence or absence of Annexin V was determined. Each treatment was performed in duplicate and repeated at least twice.

In the case of `NC(=O)c1nnn(Cc2cc(Cl)c(C(=O)c3ccc(Cl)cc3)c(Cl)c2)c1N` [CAI, carboxyamidotriazole], the “disease stabilization, patients” value [1] is given as 49%.

In the case of `Cc1ccc2c(=O)c3cccc(CC(=O)O)c3oc2c1C` [DMXAA], the “effectiveness in inducing TNFα, less than endotoxin” value (TNFα) is listed as 20 fold.

For TNFα, the “dose lower than for VCAM-1 upregulation” value (Mouse endothelial cells) was 125 fold, the “TNFα at which an increase versus negative control could be detected” value (Mouse endothelial cells; Factor Xa generation) was 0,16 U/ml and the “TNFα required for a measurable increase of VCAM-1 expression” value (VCAM-1) was 20 U/ml. The “tissue factor expression on the surface of HUVEC” value [2] was “upregulated tissue factor expression”.

B1: Annexin V: binds to PS with high affinity (protein, UniProt P08758 2-320, looked up)
Annexin A5: AQVLRGTVTDFPGFDERADAETLRKAMKGLGTDEESILTLLTSRSNAQRQEISAAFKTLFGRDLLDDLKSELTGKFEKLIVALMKPSRLYDAYELKHALKGAGTNEKVLTEIIASRTPEELRAIKQVYEEEYGSSLEDDVVGDTSGYYQRMLVVLLQANRDPDAGIDEAQVEQDAQALFQAGELKWGTDEEKFITIFGTRSVSHLRKVFDKYMTISGFQIEETIDRETSGNLEQLLLAVVKSIRSIPAYLAETLYYAMKGAGTDDHTLIRVMVSRSEIDLFNIRKEFRKNFATSLYSMIKGDTSGDYKKALLLLCGEDD
In the case of B1, the “coaguligand-induced anti-tumor effects after pre-treatment” value (L540 Hodgkin tumors; 100 μg Annexin V, 2 hours before 40 μg anti-VCAM-1•tTF) is reported as “completely abolished”, the tumor morphology (L540 Hodgkin tumors; 100 μg alone) is reported as “did not alter tumor morphology” and the “inhibition of factor Xa production” value [3] is reported as 58%.
